Data reported in patent US9320724B2, “Method of improving cognition and increasing dendritic complexity in humans with down syndrome and compositions therefor” (priority 2013, dated 2016).

Experiments:
Ts65Dn mice [1] = details: cited from earlier work; for contextual learning: earlier study
Fgf2 [2] = details: rats; IP injections; cited from earlier work
Ts65Dn mice [3] = details: cited from earlier work
Ts65Dn and 2N mice [4] = experiment: Cardiovascular and respiratory system monitoring (MouseOx vital signs monitor); details: nadolol 5 mg/kg IP, 1 h later formoterol 2 mg/kg IP or saline, tested 4 h later
Description: (§1) Pharmacological Treatments. […] For details on methods of drug injections see FIG. 16.
Cardiovascular and respiratory system monitoring. Peripheral effects of fomoterol were assessed using MOUSEOX® Small Animal Vital Signs Monitor (Starr). The monitor was attached to a collar clip with an LED sensor to enable recordings in free-moving mice. To minimize stress before recording, the collar clip was attached to each animal. After five minutes, heart rate, respiratory rate, and oxygen saturation were recorded using MOUSEOX® 6.3.13 for 10 minutes.
(§2) FIG. 16. Strategy used for performing IP injections of βAR agonist and antagonist and behavioral testing. […] Four hours later, the mice were tested for cardiovascular and respiratory system effects, open field activity, or fear conditioning. The process started with open field-testing on day 1 followed by fear conditioning on days 4 (training) and 5 (testing).

Ts65Dn and 2N mice [5] = experiment: Fear conditioning (contextual learning); format: in vivo, mouse; details: context test one day after training, nadolol 5 mg/kg IP then formoterol 2 mg/kg IP or saline
Description: as §1
b) Fear Conditioning. […] The fear conditioning tests were done using four FreezeScan chambers (Clever Sys) on days 4 and 5 after the start of the open field-testing. […] Four hours later, the mice were placed in the fear-conditioning chamber and their baseline activity was recorded for three minutes. At the end of this period, each mouse was exposed to five shocks (2 seconds each, 0.5 mA) with inter-trial intervals of 80 seconds. Twenty-four hours later, the mice were injected again, similar to the Training Day, and returned to the same fear-conditioning chamber for five minutes and their activity was recorded. Freezing was defined as a lack of movement for 3 frames (29 frames/s).
as §2

[6] = oral administration in rodents; cited from earlier work
[7] = in vivo; cited from earlier work
Ts65Dn and 2N mice [8] = experiment: Open field activity; format: in vivo, mouse; details: nadolol 5 mg/kg IP then formoterol 2 mg/kg IP or saline; for total distance travelled: in 10 minutes
Description: as §1
a) Open Field Activity. Prior to testing, the mice were handled for five days for habituation. […] Four hours later, the mice were tested for open field activity. The open field arena (450 mm×450 mm) had visual cues on the walls. […] The arena was cleaned after each session. The velocity, total distance traveled, and the time spent in the peripheral 50% versus central 50% area of the arena (bouts) for each mouse were quantified and analyzed using TopScan Lite (Clever Sys).
as §2

synaptophysin = experiment: Synaptophysin immunostaining of the DG (synaptic density); format: in vivo, mouse; details: daily IP nadolol alone or nadolol with formoterol until day 16
Description: (§3) At the end of this period, all mice were anesthetized, perfused, and the brain was extracted. The right hemisphere from each brain was fixed in 4% paraformaldehyde followed by dehydration. The methodology for staining has been published before. […] The left hemisphere was flash frozen and used for gene expression studies.
(§4) Before all staining(s), to inhibit endogenous peroxidase, 70-μm-thick floating sections were pre-incubated in 0.5% H2O2 in 50% methanol for 30 minutes at RT. This was followed by pre-incubating the sections in 0.1% triton and 10% normal serums(s) (NS, Vector Labs) for 1 hour at RT. This was followed by incubation in primary antibodies overnight at RT. […] For DCX staining the sections were kept in pre-warmed (37° C.) for 30 minutes before staining. This was followed by incubation in secondary anti-bodies that were diluted in 0.1% triton and corresponding 1% NS. The sections were then incubated in ABC Lite (1:1000, Vector) for 1 hour. Staining was terminated by incubating in DAB (0.66 mg/ml in tris-HCl) for 5-10 minutes. Finally, the sections were washed, dehydrated and mounted.
(§5) FIG. 16. Strategy used for performing IP injections of βAR agonist and antagonist and behavioral testing. […] Four hours later, the mice were tested for cardiovascular and respiratory system effects, open field activity, or fear conditioning. […]

c-Fos = c-Fos immunostaining of the DGC layer; format: in vivo, mouse; details: daily IP nadolol alone or nadolol with formoterol until day 16
Description: as §3, §4, §5

BrdU-positive profiles = experiment: BrdU cell count in the DG (cell proliferation); format: in vivo, mouse; details: 15 days of treatment, then BrdU 50 mg/kg IP daily for 5 days
Description: To identify proliferating cells, we used 5-bromo-2′-deoxyuridine (BrdU, Sigma). It was dissolved in PBS, filtered, and kept at 4° C. till use. After 15 days of treatment, each mouse was injected IP daily (50 mg/kg) with BrdU solution for 5 days. Thereafter, on day 21, all mice were anesthetized and transcardially perfused with ice-cold saline. The entire brain was immediately removed and the two hemispheres were separated. The left hemisphere was fixed overnight, cut, and stored. […] This was followed by incubation of sections in ABC.
Stereo-Investigator (MBF) was used to quantify the total number of BrdU-positive cells in the entire septo-temporal extent of DG. Following the outlining of the DG area at 4×, each positive profile was identified using a 100× oil objective. Unbiased stereological methods were used to determine the total number of BrdU-immunoreactive-profiles throughout the hippocampus. A Nanozoomer system (Hamamatsu 2.0 RS) was used to capture images of the entire slide in each case. High magnification images were captured using the Nanozoomer and stored.

DCX-positive neurons = experiment: DCX immunostaining: number and dendritic branching of newly born DGCs; format: in vivo, mouse; details: nadolol alone or nadolol with formoterol
Description: as §3, §4

Fgf2 [9] = experiment: Fgf2 gene expression, real-time PCR in DG micro-punches; format: in vivo; details: normalized to B-actin and Gapdh and to a 2N mouse

In the case of `N[C@H](C(=O)O)[C@H](O)c1ccc(O)c(O)c1` [L-DOPS, L-threo-3,4-dihdroxyphenylserine], the contextual learning (Ts65Dn mice [1]) is given as “restored contextual learning”.

For `CC(C)(C)NCC(O)c1cc(Cl)c(N)c(Cl)c1` (stereo not drawn) [clenbuterol], the “Fgf2 mRNA levels in the hippocampus” value (Fgf2 [2]) is listed as “significant increase”.

For `CNCCC(Oc1ccc(C(F)(F)F)cc1)c1ccccc1` (stereo not drawn) [fluoxetine], the neurogenesis (Ts65Dn mice [3]) is listed as “promote neurogenesis”.

Work on `COc1ccc(CC(C)NCC(O)c2ccc(O)c(NC=O)c2)cc1` (stereo not drawn) [formoterol] yielded an O2 saturation (Ts65Dn and 2N mice [4]; 2N mice) of 93.221±0.36%, a heart rate (Ts65Dn and 2N mice [4]; 2N mice) of 638.440±44.77 pulse per minute and an O2 saturation (Ts65Dn and 2N mice [4]; Ts65Dn mice) of 92.205±1.31%. The heart rate (Ts65Dn and 2N mice [4]; Ts65Dn mice) was 672.620±36.58 pulse per minute, the respiratory rate (Ts65Dn and 2N mice [4]; Ts65Dn mice) was 189.090±8.40 per minute and the duration of freezing (Ts65Dn and 2N mice [5]; Ts65Dn mice) was 34.040±3.66 seconds per minute. For the same compound, the “time to reach the brain” value [6] was no more than 30 min and the “crossing of the blood brain barrier” value [7] was “cross the blood brain barrier (BBB) and reach the brain”.

In the case of `CC(C)(C)NCC(O)COc1cccc2c1CC(O)C(O)C2` (stereo not drawn) [nadolol], the duration of freezing (Ts65Dn and 2N mice [5]; 2N mice) was 46.761±3.09 seconds per minute, the duration of freezing (Ts65Dn and 2N mice [5]; Ts65Dn mice) was 19.28±4.79 seconds per minute and the total distance travelled (Ts65Dn and 2N mice [8]; 2N mice) was 18.233±1.48 meters. The “number of bouts, central 50% area” value (Ts65Dn and 2N mice [8]; 2N mice) was 39.46±4.96, the “number of bouts, peripheral 50% area” value (Ts65Dn and 2N mice [8]; 2N mice) was 45.00±5.68 and the “mean velocity in the open field arena” value (Ts65Dn and 2N mice [8]; 2N mice, 4 h later) was 31.465±2.74 mm/s. The total distance travelled (Ts65Dn and 2N mice [8]; Ts65Dn mice) was 30.424±2.70 meters, the “number of bouts, central 50% area” value (Ts65Dn and 2N mice [8]; Ts65Dn mice) was 60.25±4.95 and the “percentage of area covered by synaptophysin staining in the DG” value (synaptophysin; 2N mice) was 27.40±11.00%. For the same compound, the “percentage of area covered by synaptophysin staining in the DG” value (synaptophysin; Ts65Dn mice) was 21.50±1.00%, the “density of c-Fos-positive DGCs” value (c-Fos; 2N mice) was 179.30±22.4 cells/mm^2 and the “density of c-Fos-positive DGCs” value (c-Fos; Ts65Dn mice) was 109.42±13.0 cells/mm^2. The “total number of BrdU-positive profiles in the DG” value (BrdU-positive profiles; 2N mice) was 3,161.390±900, the “total number of BrdU-positive profiles in the DG” value (BrdU-positive profiles; Ts65Dn mice) was 2,133.290±491 and the “number of DCX-positive DGCs” value (DCX-positive neurons; 2N mice) was 5391.36±744. The “order of dendritic branching of DCX-positive neurons” value (DCX-positive neurons; 2N mice) was 2.05±0.12, the “number of DCX-positive DGCs” value (DCX-positive neurons; Ts65Dn mice) was 2837.79±500 and the “order of dendritic branching of DCX-positive neurons” value (DCX-positive neurons; Ts65Dn mice) was 1.58±0.08. The “Fgf2 gene expression in DG micro-punches” value (Fgf2 [9]; 2N mice) was 1.000±0.41 and the “Fgf2 gene expression in DG micro-punches” value (Fgf2 [9]; Ts65Dn mice) was 0.344±0.07.

For `O=C(NCCNCC(O)COc1ccc(O)cc1)N1CCOCC1` (stereo not drawn) [xamoterol], the contextual learning (Ts65Dn mice [1]) is listed as “restored contextual learning” and the “spatial learning and hyperactivity” value (Ts65Dn mice [1]; later studies) is listed as “did not improve spatial learning and/or reduce hyperactivity”.
